Columns and labels:
[1] = tested on: human embryonic stem cells line H1; conditions: stage 4; immunocytochemistry (FIG. 6)
Method: (§1) Briefly, cells of the human embryonic stem cells line H1 were cultured on […]™ coated dishes (1:30 dilution) with RPMI medium+2% BSA+100 ng/ml activin A+20 ng/ml WNT-3a+8 ng/ml of bFGF for one day followed by treatment with RPMI media+2% BSA+100 ng/ml activin A+8 ng/ml of bFGF for an additional two days (Stage 1), then • a. DMEM/F12+2% BSA+50 ng/ml FGF7 for three days (Stage 2), then • b. DMEM-High glucose+1% B27+50 ng/ml FGF7+0.25 μM Cyclopamine-KAAD+2 μM Retinoic acid (RA)+100 ng/ml of Noggin+20 ng/ml Activin A for four days (Stage 3), then • c. DMEM-High glucose+1% B27+100 ng/ml Noggin+1 μM ALK5 inhibitor II for three days (Stage 4), or • d. DMEM-High glucose+1% B27 only for three days (Stage 4).

[2] = tested on: human embryonic stem cell line H1; assay: Immunofluorescence analysis of cultures at stage 3 day 4 (Example 1); format: cell-based
Method: (§2) Cells of the human embryonic stem cell line H1 were cultured on MATRIGEL-coated plates (1:30 dilution), and differentiated into pancreatic endocrine precursor cells using the following protocol: • a.
(§3) Cultures were sampled in duplicate on stage 3 day 4, and analyzed for expression of pancreatic markers using real-time PCR. Cultures also were fixed in parallel for immunofluorescence analysis.

[3] = tested on: human embryonic stem cells line H1; conditions: stage 4 day 3
Method: as §1
Pancreatic endocrine precursor cells express NGN3.

[4] = tested on: human embryonic stem cell line H1; assay: Real-time PCR of pancreatic markers at stage 3 day 4 (Example 1); format: cell-based
Method: Cultures were sampled in duplicate on stage 3 day 4, and analyzed for the expression of pancreatic markers using real-time PCR.
as §2, §3

[5] = 1 μM ALK5 inhibitor II + 100 ng/ml Noggin vs basal medium (FIG. 5)
[6] = 1 μM ALK5 inhibitor II + 100 ng/ml Noggin vs basal medium (FIG. 5 panel b)
[7] = replacement of activin A in treatment 2, four days, stage 3 day 4 (FIG. 4)

In the case of `Cc1cccc(-c2[nH]ncc2-c2ccc3ncccc3n2)n1` [Alk5 inhibitor II, ALK5 inhibitor II], the “number of cells positive for NGN3 protein” value [1] is reported as “increase”, the “number of NGN3 expressing cells” value ([2]; 1 μM ALK5 inhibitor II added to treatment 1 (Table 1, FIG. 2 panel f)) is reported as “significantly increased” and the NGN3 expression [3, 5] is reported as “significant increase”. For the same molecule, the “expression of NEUROD” value [3, 5] was “up regulation”, the “expression of NKX2.2” value [3, 5] was “up regulation” and the “expression of PAX4” value [3, 5] was “up regulation”. For the same molecule, the “expression of PAX6” value [3, 5] was “up regulation”, the “expression of PTF1 alpha” value [3, 5] was “increase” and the “expression of NKX6.1” value [3, 6] was “did not appear to affect”. For the same molecule, the “expression of PDX1” value [3, 6] was “did not appear to affect”, the PDX1 expression ([4]; stage 3 day 4, 1 μM ALK5 inhibitor II added to treatment 1) was “No significant impact” and the “level of expression of NKX6.1” value ([4]; stage 3 day 4, 1 μM ALK5 inhibitor II added to treatment 1, compared with treatment 1) was “decrease”.

GDF-8 was tested, and the PDX1 expression [4, 7] was “No significant impact”, the “expression of NGN3” value [4, 7] was “down-regulation” and the “expression of NKX6.1” value [4, 7] was “increase”.

B1: activin A (protein, UniProt P08476 311-426, looked up)
Inhibin beta A chain: GLECDGKVNICCKKQFFVSFKDIGWNDWIIAPSGYHANYCEGECPSHIAGTSGSSLSFHSTVINHYRMRGHSPFANLKSCCVPTKLRPMSMLYYDDGQNIIKKDIQNMIVEECGCS
modifications: Inhibin beta A chain
notes: TGFβ receptor agonist (R&D Systems)
In the case of B1, the “expression of NGN3” value ([2]; immunofluorescence (FIG. 2)) is reported as “blocked the expression”, the “number of NKX6.1 expressing cells” value ([2]; immunofluorescence (FIG. 2), 20 ng/ml activin A added to treatment 1) is reported as “significantly increased” and the NGN3 expression ([4]; stage 3 day 4, 20 or 50 ng/ml activin A with FGF7, cyclopamine-KAAD, retinoic acid, Noggin (FIG. 1)) is reported as “down-regulation”. For the same molecule, the NKX6.1 expression ([4]; stage 3 day 4, 20 or 50 ng/ml activin A with FGF7, cyclopamine-KAAD, retinoic acid, Noggin, compared to cells receiving no activin A (FIG. 1)) was “dramatic increase”.

B2: GDF-11 (protein, UniProt O95390 299-407, looked up)
Growth/differentiation factor …: NLGLDCDEHSSESRCCRYPLTVDFEAFGWDWIIAPKRYKANYCSGQCEYMFMQKYPHTHLVQQANPRGSAGPCCTPTKMSPINMLYFNDKQQIIYGKIPGMVVDRCGCS
notes: TGFβ receptor agonist
For B2, the PDX1 expression [4, 7] was “No significant impact”, the “expression of NGN3” value [4, 7] was “down-regulation” and the “expression of NKX6.1” value [4, 7] was “increase”.

B3: TGFβ2 (protein, UniProt P61812 303-414, looked up)
Transforming growth factor …: ALDAAYCFRNVQDNCCLRPLYIDFKRDLGWKWIHEPKGYNANFCAGACPYLWSSDTQHSRVLSLYNTINPEASASPCCVSQDLEPLTILYYIGKTPKIEQLSNMIVKSCKCS
notes: TGFβ receptor agonist
In the case of B3, the PDX1 expression [4, 7] is reported as “No significant impact”, the “expression of NGN3” value [4, 7] is reported as “down-regulation” and the “expression of NKX6.1” value [4, 7] is reported as “increase”.

B4: activin B (protein, UniProt P09529 293-407, looked up)
Inhibin beta B chain: GLECDGRTNLCCRQQFFIDFRLIGWNDWIIAPTGYYGNYCEGSCPAYLAGVPGSASSFHTAVVNQYRMRGLNPGTVNSCCIPTKLSTMSMLYFDDEYNIVKRDVPNMIVEECGCA
modifications: Inhibin beta B chain
notes: TGFβ receptor agonist
B4 was tested, and the PDX1 expression [4, 7] was “No significant impact”, the “expression of NGN3” value [4, 7] was “down-regulation” and the “expression of NKX6.1” value [4, 7] was “increase”.
